Assay [1] relates to APP gencDNAs in CHO cells. As to the kind of experiment: Induction of APP gencDNAs in APP 751-transfected CHO cells treated with hydrogen peroxide, genomic DNA PCR. It counts as cell-based. The settings on record: AZT 100 μM and ABC 10 μM given together, APP 751 transfection, hydrogen peroxide 0, 5 or 50 μM, FIG. 20B. On the procedure:
The method is graphically represented in FIG. 20A. CHO cells were serum-deprived for 2 days, followed by addition of reverse transcriptase (RT) inhibitors azidothymidine (AZT, 100 μM) and abacavir (ABC, 10 μM) (Tocris, Minneapolis, Minn.) until the end of the experiment. Medium was changed daily with fresh RT inhibitors. Cells were transfected with APP 751 by GenJet (SignaGen Laboratories, Gaithersburg, Md.) on day 3, then on day 4 cells were treated with 0 μM, 5 μM, or 50 μM of hydrogen peroxide (Fisher Scientific) for 2 hrs. After 1 day, cells were collected and genomic DNA was extracted for PCR analysis.

Assay [2] concerns reverse transcriptase activity in CHO cell lysate. Put plainly: In vitro reverse transcriptase activity assay in CHO cell lysate. In kind it is biochemical. The note with it: four independent experiments, FIG. 20E, read-out: IC50, decrease of reverse transcriptase activity. On the procedure:
In one example, lysates were prepared in reverse transcriptase disruption buffer and contained Complete™, EDTA-free Protease Inhibitor Cocktail (Sigma-Aldrich, St. Louis, Mo.) and PhosSTOP™ phosphatase inhibitors (Sigma-Aldrich, St. Louis, Mo.). One microgram of extract was used in the reverse transcription step of the assay. Reverse transcription was carried out at 37° C. for 45 min, followed by 15 min at 70° C. The RT product of this first step was assayed in triplicate by quantitative PCR. Levels of reverse transcription activity were determined by the Delta Cq method, compared to the activity in negative controls (water and no nucleotides) that were given Cq scores of 40. 1×10^5 picounits of SuperScript™ II Reverse Transcriptase (ThermoFisher Scientific) were used as a positive control for the assay. Lysates for heat inactivation experiments were incubated for 15 min at 70° C. prior to the reverse transcription step. For inhibitor experiments, lysates were incubated with inhibitor in the presence of all the components of the reaction except for dNTPs. After 10 min at room temperature, dNTPs were added and the reaction was incubated at 37° C. as above. AZT-TP was purchased from TriLink Biotechnologies (San Diego, Calif.).
In another example, the in vitro reverse transcriptase activity assay was conducted with reagents and protocol as shown in Tables 8-11.

As to `Nc1nc(NC2CC2)c2ncn([C@H]3C=C[C@@H](CO)C3)c2n1` [abacavir], in assay [1], the “production of APP gencDNAs under nucleoside reverse transcriptase inhibitors” value was “also required to produce gencDNAs”.

In general, IC50 refers to the concentration that gives 50% inhibition. Consider azidothymidine triphosphate [AZT-TP], for which the 50% inhibitory concentration (IC50) in assay [2] stood at 18.5 µM.

Source of the values: patent publication US12280063B2, “Anti-retroviral therapies and reverse transcriptase inhibitors for treatment of Alzheimer's disease” (Sanford Burnham Prebys Medical Discovery Institute, priority 2018, dated 2025).
